These are literature values, as cited in patent US7858803B2, “Imaging tracers for early detection and treatment of amyloid plaques caused by Alzheimer's disease and related disorders” (The General Hospital Corporation, priority 2007, dated 2010).

For data set [1] the following is noted: normal mice, iv, at 2 min after injection.
Another data set concerns brain amyloid deposits. Conditions: APP23 transgenic mice, brain sections at 180 min after iv injection.

As to `CNc1ccc(C=Cc2nc3ccc(OCCF)cc3o2)cc1` [BF-168, 6-(2-fluoroethoxy)-2-[2-(4-methylaminophenyl)ethenyl]-benzoxazole], in data set [1], the initial brain uptake is on record as 3.9 % injected dose/gm. The “labeling of brain amyloid deposits in autoradiograms” value in the data set on brain amyloid deposits is given as “selective labeling of brain amyloid deposits with little non-specific binding”.
